Results reported in ChEMBL document CHEMBL2057106, “Α-amino-β-fluorocyclopropanecarboxylic acids as a new tool for drug development: synthesis of glutamic acid analogs and agonist activity towards metabotropic glutamate receptor 4” (Bioorg Med Chem, 2012).
The source made the active and inactive calls. No cut-off for these calls is given here.

Columns and labels:
[1] = Agonist activity at mGlu4a receptor assessed as inhibition of forskolin-stimulated cAMP production; type: functional, Homo sapiens
[2] = target: Metabotropic glutamate receptor 4 (Rattus norvegicus, UniProt P31423); test: Agonist activity at rat mGlu4 receptor expressed in HEK293 cells coexpressing Gq/Gi and EAAC1 assessed as intracellular calcium production measured every 1.5 secs for 60 secs by Fluo-4-AM based fluorometry; type: functional, cell-based
Chain of Metabotropic glutamate receptor 4 (P31423 whole entry): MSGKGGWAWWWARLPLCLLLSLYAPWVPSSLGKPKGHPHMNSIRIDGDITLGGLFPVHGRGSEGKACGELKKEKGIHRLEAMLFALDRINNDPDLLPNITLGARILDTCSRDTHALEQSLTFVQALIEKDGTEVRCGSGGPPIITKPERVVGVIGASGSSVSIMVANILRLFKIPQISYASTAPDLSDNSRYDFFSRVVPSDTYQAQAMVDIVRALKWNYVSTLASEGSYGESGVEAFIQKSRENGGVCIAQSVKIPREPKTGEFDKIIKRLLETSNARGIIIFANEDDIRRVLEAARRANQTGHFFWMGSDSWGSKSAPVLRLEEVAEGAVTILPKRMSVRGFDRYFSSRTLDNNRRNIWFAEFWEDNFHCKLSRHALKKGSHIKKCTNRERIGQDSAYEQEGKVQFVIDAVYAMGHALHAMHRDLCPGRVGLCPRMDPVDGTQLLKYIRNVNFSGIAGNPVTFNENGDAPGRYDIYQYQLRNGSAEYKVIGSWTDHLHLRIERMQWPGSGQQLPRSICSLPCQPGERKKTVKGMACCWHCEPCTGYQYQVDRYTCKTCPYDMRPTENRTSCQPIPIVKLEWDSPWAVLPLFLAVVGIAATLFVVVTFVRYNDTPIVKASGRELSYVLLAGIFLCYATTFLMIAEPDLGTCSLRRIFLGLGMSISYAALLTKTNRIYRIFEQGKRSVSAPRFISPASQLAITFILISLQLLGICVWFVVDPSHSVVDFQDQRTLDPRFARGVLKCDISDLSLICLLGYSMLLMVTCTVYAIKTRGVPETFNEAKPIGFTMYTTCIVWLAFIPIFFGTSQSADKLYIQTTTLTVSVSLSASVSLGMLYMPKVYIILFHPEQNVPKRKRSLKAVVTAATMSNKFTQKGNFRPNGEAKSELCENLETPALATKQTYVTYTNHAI

[3] = target: Metabotropic glutamate receptor 4 (Rattus norvegicus) (UniProt P31423); test: Ratio of (E)APCPr EC50 to compound EC50 for rat mGlu4 receptor expressed in HEK293 cells; type: cell-based
Chain of Metabotropic glutamate receptor 4 (Rattus norvegicus) (P31423 whole entry): as above

[4] = target: Metabotropic glutamate receptor 4 (Rattus norvegicus) (UniProt P31423); test: Agonist activity at rat mGlu4 receptor expressed in HEK293 cells coexpressing Gq/Gi and EAAC1 assessed as intracellular calcium production at 100 uM measured every 1.5 secs for 60 secs by Fluo-4-AM based fluorometry; type: functional, cell-based
[5] = target: Metabotropic glutamate receptor 4 (Rattus norvegicus) (UniProt P31423); test: Ratio of glutamate EC50 to compound EC50 for rat mGlu4 receptor expressed in HEK293 cells; type: cell-based

EC50 [2] | Structure (SMILES) | further results
 | N[C@@H](CCP(=O)(O)O)C(=O)O | EC50 [1]: 0.43 µM
609 µM | N[C@]1(C(=O)O)C[C@@]1(F)CCC(=O)O (racemic) | 
465 µM | N[C@]1(C(=O)O)C[C@@]1(F)CC(=O)O (racemic) | 
85.6 µM | N[C@]1(C(=O)O)C[C@@]1(F)CS(=O)(=O)O (racemic) | 
 | N[C@]1(C(=O)O)C[C@H]1CP(=O)(O)O (racemic) | EC50 [1]: 7.9 µM
2.88 µM | N[C@@H](CCC(=O)O)C(=O)O [GLUTAMIC ACID] | 

Structure (SMILES) | EC50 [2] | further results
N[C@@]1(C(=O)O)C[C@@]1(F)C(O)P(=O)(O)O (mixture of isomers) | 1400 µM | 
N[C@]1(C(=O)O)C[C@@]1(F)CP(=O)(O)O (racemic) | 0.34 µM | Ratio EC50 [3]: 7; Activity [4]: Active; Ratio EC50 [5]: 10
